Measurements published in publication PMC10873626, “Acceleration of infectious disease drug discovery and development using a humanized model of drug metabolism” (Proceedings of the National Academy of Sciences of the …, 2024).
Values after ≈ are worked out from the molar mass of the structure shown. Read-outs that look alike come from different tables or passages of the source.

Columns and labels:
M. tuberculosis H37Rv = test: Acute M. tuberculosis infection efficacy model in 8HUM (lung CFU); format: in vivo, Mycobacterium tuberculosis
[1] = mouse, hepatocytes
[2] = hepatocytes
[3] = mouse, hepatocytes; remark: listed apart in the source
[4] = microsomes
CYP = conditions: cited from earlier work
[5] = mouse, microsomes
[6] = mouse, microsomes; remark: listed apart in the source
[7] = mouse, microsomes; remark: listed apart in the source
[8] = human, 100 mg BID; ref SI 8; cited from earlier work
[9] = Oral pharmacokinetics in WT mice; conditions: female, mouse, whole blood
[10] = Oral pharmacokinetics in 8HUM mice; conditions: female, mouse, whole blood
[11] = DDI: pretomanid PK after CYP3A4 inducer pre-treatment in 8HUM; format: in vivo, mouse (8HUM)
Description: (§1) With the exception of quinidine PK, female mice were used in all experiments. Dose levels and schedules were as detailed in SI Appendix. Serial blood samples (10 µL) were taken from the tail vein at the timepoints shown, diluted into 9 volumes of Milli-Q water, and stored at −20 °C prior to bioanalysis. Samples from mice infected with T. cruzi were snap-frozen in liquid nitrogen and thawed three times before storage at −20 °C until bioanalysis. Samples from mice infected with M. tuberculosis (15 µL) were mixed with two volumes of Milli-Q and stored at −70 °C until bioanalysis. All non-compartmental analysis, modeling, and simulation of PK was carried out using Phoenix WinNonlin version 8.3.1.5014 (Certara), as described in SI Appendix.
(§2) Mouse hepatic microsomes were prepared by homogenization of freshly-isolated liver in ice-cold SET buffer (0.25 M sucrose, 5 mM EDTA, and 20 mM Tris-HCL, pH 7.4) to make a 10% (w/v) homogenate solution (9 ml SET buffer/1 g liver) using a Polytron PT-MR-2100 homogenizer. Liver homogenates were centrifuged at 2000 rpm (Sorvall RTH-250 rotor) for 10 minutes at 4 °C and the supernatant then centrifuged at 12000 rpm (Sorvall SS-34 rotor) for 20 minutes at 4 °C. The resulting supernatant was centrifuged at 29130 rpm (Sorvall TFT-45.6 rotor) for 90 minutes at 4 °C and the microsomal pellets were resuspended in ice-cold SET buffer for storage at –70 °C.
(§3) Primary hepatocytes were freshly prepared from 8HUM using a modified version of Charni-Natan and Goldstein’s STAR Protocol(1). Following termination by cervical dislocation and femoral vessel cut […]
(§4) canula (Merck) and the liver perfused using 30 mL Hanks Buffered Saline Solution (HBSS, -Ca 2+ -Mg2+, no phenol red, Gibco), containing 0.5 mM EDTA and 25 mM HEPES, running at a flow rate of 3 mL/min at approximately 37 °C. Subsequently, 10 mL HBSS digestion buffer (Ca2+ & Mg2+, no phenol red, Gibco), including 25 mM HEPES and 270 µL liberase (Merck) running at a flow rate of 3 mL/min and ~37 °C was then perfused. The final perfusion step utilised 30 mL HBSS digestion buffer containing 25 mM HEPES and 20 mg collagenase (Merck) at approximately 37 °C. The liver was excised, gall bladder removed and placed in a 10 cm petri dish where it was covered with 10 mL plating medium WME containing CM4000. The liver capsule was gently agitated with a glass rod and forceps to disperse the liver cells. Cells were then poured through a 100 µm nylon strainer (Falcon, Corning, NY, USA) into a 50 mL collection tube and topped up to 50 mL with plating medium at 37 °C. All solutions were perfused using a Miniplus peristaltic pump (Gilson, Middleton, WI, USA) and run through a 20 mL Intrafix Safeset bubble trap (Braun, Melsungen, Germany) to prevent potential blocking of vessels during perfusion. […]

[12] = human, in vivo; cited from earlier work
M. tuberculosis = conditions: cited from earlier work
[13] = DDI: pretomanid PK after CYP3A4 inducer pre-treatment in WT mice; format: in vivo, mouse
Description: as §1, §2, §3, §4

[14] = 8HUM pre-treated with efavirenz (40 mg/kg once daily for three days)
[15] = 8HUM pre-treated with rifampicin (2 mg/kg once, 24 hr prior)
[16] = WT pre-treated with efavirenz (40 mg/kg once daily for three days)
[17] = WT pre-treated with rifampicin (2 mg/kg once, 24 hr prior)

SMILES: COc1c(N2C[C@@H]3CCCN[C@@H]3C2)c(F)cc2c(=O)c(C(=O)O)cn(C3CC3)c12 [moxifloxacin]
- log CFU reduction in the lungs compared to the control group (M. tuberculosis H37Rv; 8HUM, day 9, 30 mg/kg QD): 3.9 log CFU

SMILES: CCOc1ccc2ccc(=O)oc2c1 [7-ethoxycoumarin]
- CLint, 8HUM [1]: 13.8 mL/min/g liver
- CLint, Human [2]: 8.2 mL/min/g liver
- CLint, WT [3]: 39 mL/min/g liver

SMILES: CO[C@H]1C[C@H](O[C@H]2[C@H](C)[C@@H](O[C@@H]3O[C@H](C)C[C@H](N(C)C)[C@H]3O)[C@@H](C)C[C@@]3(CO3)C(=O)[C@H](C)[C@@H](O)[C@@H](C)[C@@H](C)OC(=O)[C@@H]2C)O[C@@H](C)[C@@H]1O [Oleandomycin]
- CLint, Human [4]: 18.5 mL/min/g liver
- CYP interaction: Inhibitor (CYP): 3A4
- CLint, CypC4KO [5]: 50 mL/min/g liver

SMILES: CCOc1ccc(NC(C)=O)cc1 [Phenacetin]
- CLint, 8HUM [1]: 1.3 mL/min/g liver

SMILES: CC[C@H]1OC(=O)[C@H](C)[C@@H](O[C@H]2C[C@@](C)(OC)[C@@H](O)[C@H](C)O2)[C@H](C)[C@@H](O[C@@H]2O[C@H](C)C[C@H](N(C)C)[C@H]2O)[C@](C)(OC)C[C@@H](C)C(=O)[C@H](C)[C@@H](O)[C@]1(C)O [Clarithromycin]
- CLint, Human [4]: 1.4 mL/min/g liver
- CYP interaction: Substrate (CYP): 3A4

SMILES: CC1(C)S[C@@H]2[C@H](NC(=O)[C@H](N)c3ccc(O)cc3)C(=O)N2[C@H]1C(=O)O [Amoxicillin]
- CYP interaction: Inhibitor (CYP): 2C19

SMILES: CC[C@H]1OC(=O)[C@H](C)[C@@H](O[C@H]2C[C@@](C)(OC)[C@@H](O)[C@H](C)O2)[C@H](C)[C@@H](O[C@@H]2O[C@H](C)C[C@H](N(C)C)[C@H]2O)[C@](C)(O)C[C@@H](C)C(=O)[C@H](C)[C@@H](O)[C@]1(C)O [Erythromycin]
- CLint, 8HUM [1]: 0.5 mL/min/g liver
- CLint, Human [4]: 3.3 mL/min/g liver
- CLint, Human [2]: 0.5 mL/min/g liver
- CLint, WT [3]: 1.3 mL/min/g liver

SMILES: CC[C@@H]([C@H](C)O)n1ncn(-c2ccc(N3CCN(c4ccc(OC[C@@H]5CO[C@@](Cn6cncn6)(c6ccc(F)cc6F)C5)cc4)CC3)cc2)c1=O [Posaconazole]
- CLint, 8HUM [6]: 0.5 mL/min/g liver
- CLint, WT [7]: 0.5 mL/min/g liver
- CLint, Human [4]: 0.5 mL/min/g liver

SMILES: C[C@H](Cn1cnc2c(N)ncnc21)OCP(=O)(O)O [Tenofovir]
- CYP interaction: Substrate (CYP): 1A2

SMILES: Cc1cc(C#N)cc(C)c1Oc1nc(Nc2ccc(C#N)cc2)nc(N)c1Br [Etravirine]
- CLint, Human [4]: 1 mL/min/g liver

SMILES: CC(=O)NC[C@H]1CN(c2ccc(N3CCOCC3)c(F)c2)C(=O)O1 [Linezolid]
- CLint, 8HUM [1]: 0.5 mL/min/g liver
- CLint, 8HUM [6]: 0.5 mL/min/g liver
- CLint, WT [7]: 0.5 mL/min/g liver
- CYP interaction: Substrate (CYP): 3A4
- CLint, CypC4KO [5]: 0.5 mL/min/g liver

SMILES: C[C@]1(COc2ccc(N3CCC(Oc4ccc(OC(F)(F)F)cc4)CC3)cc2)Cn2cc([N+](=O)[O-])nc2O1 [Delamanid]
- apparent volume of distribution (V/F) [8]: 11.9 L/kg
- oral clearance (CL/F) [8]: 9.12 mL/min/kg
- CL/F [9]: 110 mL/min/kg
- CL/F [10]: 20.7 mL/min/kg
- CLint, Human [4]: 0.8 mL/min/g liver

SMILES: CO[C@H]1/C=C/O[C@@]2(C)Oc3c(C)c(O)c4c(O)c(c(/C=N/N5CCN(C6CCCC6)CC5)c(O)c4c3C2=O)NC(=O)/C(C)=C\C=C\[C@H](C)[C@H](O)[C@@H](C)[C@@H](O)[C@@H](C)[C@H](OC(C)=O)[C@@H]1C [Rifapentine]
- CYP interaction: Inducer (CYP): 2C8, 2C9

SMILES: O=[N+]([O-])c1cn2c(n1)OC[C@@H](OCc1ccc(OC(F)(F)F)cc1)C2 [Pretomanid]
- decrease in AUC of pretomanid [11, 14]: 54%
- decrease in Cmax of pretomanid [11, 14]: 14%
- decrease in AUC of pretomanid [11, 15]: 51%
- decrease in Cmax of pretomanid [11, 15]: 25%
- CLint, 8HUM [6]: 0.5 mL/min/g liver
- CLint, WT [7]: 0.5 mL/min/g liver
- decrease in AUC of pretomanid [12]: 35%
- decrease in Cmax of pretomanid [12]: 28%
- minimum inhibitory concentration (M. tuberculosis): 0.06 µg/mL (≈ 0.167 µM)
- CL/F [9]: 4.43 mL/min/kg
- CL/F [10]: 2.17 mL/min/kg
- CLint, Human [4]: 0.5 mL/min/g liver
- CYP interaction: Substrate (CYP): 3A4
- decrease in AUC of pretomanid [13, 16]: 65%
- decrease in Cmax of pretomanid [13, 16]: 31%
- decrease in AUC of pretomanid [13, 17]: 10%
- decrease in Cmax of pretomanid [13, 17]: 6%
- efficacy in 8HUM compared with WT (lung CFU) (M. tuberculosis H37Rv; M. tuberculosis infection, once a day for 8 days): less effective in 8HUM

SMILES: CO[C@H]1O[C@@H]2O[C@@]3(C)CC[C@H]4[C@H](C)CC[C@@H]([C@H]1C)[C@@]24OO3 [Artemether]
- CYP interaction: Inhibitor (CYP): 3A4

SMILES: CC(C)CN(C[C@@H](O)[C@H](Cc1ccccc1)NC(=O)O[C@H]1CCOC1)S(=O)(=O)c1ccc(N)cc1 [Amprenavir]
- CYP interaction: Inhibitor (CYP): 3A4

SMILES: OC(c1cc(C(F)(F)F)nc2c(C(F)(F)F)cccc12)C1CCCCN1 (stereo not drawn) [Mefloquine]
- CLint, 8HUM [1]: 0.5 mL/min/g liver
- CLint, Human [4]: 0.5 mL/min/g liver
- CLint, CypC4KO [5]: 0.5 mL/min/g liver
- CLint, Human [2]: 0.5 mL/min/g liver
- CLint, WT [3]: 0.5 mL/min/g liver

SMILES: C=C[C@H]1C[N@@]2CC[C@H]1C[C@@H]2[C@@H](O)c1ccnc2ccc(OC)cc12 [Quinidine]
- CYP interaction: Inhibitor (CYP): 2D6

SMILES: [H]/N=C(\N/C(=N/[H])Nc1ccc(Cl)cc1)NC(C)C [Proguanil]
- CLint, 8HUM [6]: 0.5 mL/min/g liver
- CLint, WT [7]: 0.5 mL/min/g liver
- CLint, Human [4]: 0.3 mL/min/g liver
- CYP interaction: Substrate (CYP): 2C19

SMILES: CCCCN(CCCC)CCC(O)c1cc2c(Cl)cc(Cl)cc2c2cc(C(F)(F)F)ccc12 (stereo not drawn) [Halofantrine]
- CLint, Human [4]: 1.7 mL/min/g liver
- CYP interaction: Substrate (CYP): 3A4

SMILES: CC(C)c1nc(CN(C)C(=O)N[C@H](C(=O)N[C@@H](Cc2ccccc2)C[C@H](O)[C@H](Cc2ccccc2)NC(=O)OCc2cncs2)C(C)C)cs1 [Ritonavir]
- CLint, Human [4]: 6.6 mL/min/g liver

SMILES: CO[C@H]1/C=C/O[C@@]2(C)Oc3c(C)c(O)c4c(O)c(c(/C=N/N5CCN(C)CC5)c(O)c4c3C2=O)NC(=O)/C(C)=C\C=C\[C@H](C)[C@H](O)[C@@H](C)[C@@H](O)[C@@H](C)[C@H](OC(C)=O)[C@@H]1C [Rifampicin]
- CLint, Human [4]: 0.8 mL/min/g liver

SMILES: O=C(O)Cc1ccccc1Nc1c(Cl)cccc1Cl [Diclofenac]
- CLint, 8HUM [1]: 1.8 mL/min/g liver
